One experiment has as its target AKT1 (Homo sapiens, UniProt P31749). The experiment in a line: FABS-NMR screening (3-FABS, 19F-labelled AKTide-like substrate) on AKT-1. The class given is biochemical. Details: The active human Ser-Thr protein kinase AKT-1 Full Length was expressed as GST fusion protein; GST (cleaved yes); made in house; host or cells: insect cells. To be noted: 25 nM protein, 30 µM substrate, 1.5 mM ATP; read-out: AKT1 IC50 (µM) FABS NMR assay. The protocol: The biochemical functional NMR screening on the proteins kinase AKT-1 and PKA was performed using the 3-FABS (3-Fluorine Atoms for Biochemical Screening) technique developed by C. Dalvit and the NMR group in house (C. Dalvit et al 2003 J. Am. Chem. Soc. 125 (47): 14620).
The method require the use of a ^19F-labelled substrate. The same commercial peptide was used as substrate in both enzymatic reaction: the Tyr just before the phosphorilation site in the AKTide peptide was mutated in a 3-tryfluormethyl-Phe by Bachem.
The AKTide like peptide sequence is reported below: • H-Ala-Arg-Lys-Arg-Glu-Arg-Ala-F(3-CF3)-Ser-Phe-Gly-His-His-Ala-OH
The active human Ser-Thr protein kinase AKT-1 Full Length was expressed as GST fusion protein in insect cells and then the GST was cleaved with PreScission protease. The active cycled AMP-dependent human protein kinase A PKA was expressed as polyHis-tag protein in E.Coli and purified by affinity column.
Reactions were performed in an end point format in eppendorf of 0.5 ml using the buffer solution 50mM Tris, pH 7.5, 5mM MgCl2, 1mM DTT, 8% D2O and 0.001% Triton-X-100; the final volume was of 560 µl. The substrate and protein concentration were of 30 µM and 25 nM respectively. The reactions were performed using an ATP concentration of about 9 times its KM: 150 µM in the test with PKA and 1.5 mM in the AKT-1 experiments. A sample in absence of inhibitor was run as control in order to follow the ongoing of the reaction and it represents the 0% inhibition. Different concentration compound stock solutions in DMSOd6 were made in order to add the same amount of DMSOd6 in each sample: usually the compounds stock were of 0.03, 0.2, 2, and 10 mM. 0.56 µl of these solution was added in each sample in order to reach the final compounds concentration of 30 nM, 200 nM 2 µM and 10 µM respectively; 0.56 µl of DMSOd6 was added in the control too. The reactions were quenched after about 100/120 minutes with 10 mM of Staurosporine (Sigma code:S4400), transferred into the 5 mm NMR tube (Cortec code: NE-MP5-8) and put onto the Sample Management System (SMS) autosampler for automatic data collection. The spectra were recorded using the Varian Inova 600 MHz NMR spectrometer operating at a ^19F Larmor frequency of 564 MHz and using a 5mm probe with the inner coil tuned to ^19F and the outer coil tuned to H. The data were recorded without proton decoupling with a spectral width of 12000 Hz, an acquisition time of 0.8s and a relaxation delay of 2.8s. Chemical shifts are referenced to trifluoroacetic acid.
IC50 determination was achieved by measuring the substrate signal as a function of the inhibitor concentration using one of the formulas below. […] IC50 data were analyzed with non-linear least squares methods in the Origin 5.0 software package.

The next experiment addresses T1, AKT2 (Homo sapiens, UniProt P31751).
T1 construct: made in house
The experiment in a line: Biochemical assay for inhibitors of AKT2 kinase activity (33P trans-phosphorylation, Dowex resin). To be noted: 10 nM enzyme, 396 microM ATP, 8.5 microM peptide substrate; read-out: AKT2 IC50 (µM) Biochem assay. The protocol: (§1) The N-terminal GST fusion proteins used for the assays were prepared according to the methods described in Kumar, C. C. Biochem. Biophys. ACTA 2001, 1526, 257-268, and in Alessi, D. R.. Biochem. J. 1998 331, 299-308.
The in vitro kinase inhibition assay was conducted in the same way as described for AKT1. The kinase assay was run with a final enzyme concentration of 10 nM, in the presence of 396 microM ATP, 0.88 nM ^33P-γ-ATP and 8.5 microM substrate, a carboxy-terminally biotinylated peptide of the following sequence: ARKRERTYSFGHHA-biotin. The peptide was obtained in batches of >95% peptide purity from PRIMM labs Inc. (Boston MA, USA).

A further experiment has as its target AKT3 (Homo sapiens, UniProt Q9Y243). The experiment in a line: Biochemical assay for inhibitors of AKT3 kinase activity (33P trans-phosphorylation, Dowex resin). The note with it: 1 nM enzyme, 180 microM ATP, 28.5 microM peptide substrate; read-out: AKT3 IC50 (µM) Biochem assay. The protocol: as §1
The in vitro kinase inhibition assay was conducted in the same way as described for AKT1. The kinase assay was run with a final enzyme concentration of 1 nM, in the presence of 180 microM ATP, 0.88 nM ^33P-γ-ATP and 28.5 microM substrate, a carboxy-terminally biotinylated peptide of the following sequence: ARKRERTYSFGHHA-biotin. The peptide was obtained in batches of >95% peptide purity from PRIMM labs Inc. (Boston MA, USA).

Data on four molecules can be found in patent publication EP2002836B1, “Cyclocondensed azaindoles active as kinase inhibitors” (Nerviano Medical Sciences S.r.l., priority 2007, dated 2008).

Sequence of AKT1 (P31749 whole entry, the tested form may be a part): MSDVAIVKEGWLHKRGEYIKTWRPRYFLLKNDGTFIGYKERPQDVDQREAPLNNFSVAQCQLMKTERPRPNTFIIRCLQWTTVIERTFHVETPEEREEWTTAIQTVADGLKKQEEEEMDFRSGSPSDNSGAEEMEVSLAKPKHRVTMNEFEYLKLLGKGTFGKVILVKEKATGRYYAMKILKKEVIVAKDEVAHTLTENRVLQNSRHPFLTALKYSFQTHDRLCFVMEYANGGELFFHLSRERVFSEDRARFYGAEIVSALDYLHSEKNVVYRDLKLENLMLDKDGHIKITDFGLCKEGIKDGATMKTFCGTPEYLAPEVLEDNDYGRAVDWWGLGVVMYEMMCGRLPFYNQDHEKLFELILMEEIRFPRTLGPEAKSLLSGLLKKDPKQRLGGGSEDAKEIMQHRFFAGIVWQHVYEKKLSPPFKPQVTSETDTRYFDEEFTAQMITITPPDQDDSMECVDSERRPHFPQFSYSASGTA
Sequence of AKT3 (Q9Y243 2-479): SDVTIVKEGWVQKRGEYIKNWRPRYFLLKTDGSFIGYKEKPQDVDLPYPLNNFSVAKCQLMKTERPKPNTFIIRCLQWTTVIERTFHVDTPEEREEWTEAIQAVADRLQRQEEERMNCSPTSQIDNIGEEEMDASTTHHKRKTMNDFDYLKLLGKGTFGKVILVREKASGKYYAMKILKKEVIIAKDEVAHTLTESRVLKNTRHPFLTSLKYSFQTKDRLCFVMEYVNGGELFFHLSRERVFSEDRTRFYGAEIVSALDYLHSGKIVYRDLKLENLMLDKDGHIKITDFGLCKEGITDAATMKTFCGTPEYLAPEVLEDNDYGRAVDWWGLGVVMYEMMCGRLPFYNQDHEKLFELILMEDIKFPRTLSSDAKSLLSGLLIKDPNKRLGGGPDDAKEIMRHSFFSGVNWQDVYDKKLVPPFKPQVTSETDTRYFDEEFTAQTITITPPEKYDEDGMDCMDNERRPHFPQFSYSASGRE
T1 sequence (P31751 whole entry, species assumed): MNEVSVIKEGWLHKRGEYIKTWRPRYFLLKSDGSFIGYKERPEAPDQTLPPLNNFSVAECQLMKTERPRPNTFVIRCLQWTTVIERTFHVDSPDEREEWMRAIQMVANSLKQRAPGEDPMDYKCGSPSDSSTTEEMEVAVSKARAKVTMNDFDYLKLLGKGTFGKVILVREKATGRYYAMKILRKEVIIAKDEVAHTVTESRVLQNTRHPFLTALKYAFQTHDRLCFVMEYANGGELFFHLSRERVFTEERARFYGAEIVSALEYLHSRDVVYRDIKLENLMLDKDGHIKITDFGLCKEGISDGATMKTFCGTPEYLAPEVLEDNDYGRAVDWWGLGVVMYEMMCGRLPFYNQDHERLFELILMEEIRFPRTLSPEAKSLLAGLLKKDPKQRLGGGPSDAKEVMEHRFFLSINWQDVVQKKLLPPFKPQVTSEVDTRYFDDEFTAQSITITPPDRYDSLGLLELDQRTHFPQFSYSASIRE

`NC[C@H](Cc1ccccc1)NC(=O)C1=Cc2c[nH]c3nccc(c23)CC1` [Cpd. 1, N-[(1S)-2-amino-1-benzylethyl]-6,7-dihydro-2H-2,3-diazabenzo[cd]azulene-8-carboxamide]: the IC50 (commonly the concentration needed to halve the response being measured) at AKT1 turned out to be 0.15 µM; on AKT2, 0.266 µM; on AKT3, 0.032 µM.
Turning to `CC(=O)N1CC(C(=O)N[C@H](CN)Cc2ccccc2)=Cc2c[nH]c3nccc1c23` [Cpd. 3, 6-acetyl-N-[(1S)-2-amino-1-benzylethyl]-6,7-dihydro-2H-2,3,6-triazabenzo[cd]azulene-8-carboxamide], the IC50 at AKT1 turned out to be 0.76 µM; at AKT2 it was 1.99 µM; on AKT3 it was 0.187 µM.
In the case of `O=C(N[C@H](CN1CCCC1)c1ccccc1)C1=Cc2c[nH]c3nccc(c23)CC1` [Cpd. 6, N-[(1S)-1-phenyl-2-pyrrolidin-1-ylethyl]-6,7-dihydro-2H-2,3-diazabenzo[cd]azulene-8-carboxamide], the IC50 came to 0.315 µM on AKT1, 0.362 µM on AKT2 and 0.043 µM at AKT3.
As for `NC[C@H](Cc1ccccc1)NC(=O)C1=Cc2c[nH]c3nccc(c23)NC1` [compound 2, N-[(1S)-2-amino-1-benzylethyl]-6,7-dihydro-2H-2,3,6-triazabenzo[cd]azulene-8-carboxamide], the IC50 was 0.03 µM at AKT1, 0.155 µM at AKT2 and 0.041 µM at AKT3.
